Reference: the NIST ThermoML archive (doi:10.1021/je0604378)

Conditions: Liquid; for speed of sound: Pulse-echo method; for mass density: 101.33 kPa

CCCCCCCCCO [nonan-1-ol]
Conditions	speed of sound [m/s]
292.86 K, 45590 kPa	1579.5
292.86 K, 91180 kPa	1731.8
292.86 K, 101320 kPa	1762
292.87 K, 15200 kPa	1456.7
292.87 K, 30390 kPa	1520.8
292.87 K, 60790 kPa	1634
292.87 K, 75990 kPa	1684.4
292.88 K, 100 kPa	1382.8
297.95 K, 60790 kPa	1620
297.95 K, 91180 kPa	1718.7
297.95 K, 101320 kPa	1749.2
297.96 K, 15200 kPa	1440.2
297.96 K, 30390 kPa	1505.4
297.96 K, 45590 kPa	1564.5
297.96 K, 75990 kPa	1670.7
298.18 K, 100 kPa	1364.6
302.93 K, 45590 kPa	1550.1
302.93 K, 60790 kPa	1606
302.93 K, 75990 kPa	1657.6
302.93 K, 91180 kPa	1705.8
302.93 K, 101320 kPa	1736.7
302.94 K, 15200 kPa	1424.3
302.94 K, 30390 kPa	1490.2
303.16 K, 100 kPa	1347.5
307.91 K, 30390 kPa	1475.5
307.91 K, 45590 kPa	1536
307.91 K, 60790 kPa	1592.4
307.92 K, 15200 kPa	1408.5
307.92 K, 75990 kPa	1644.7
307.92 K, 91180 kPa	1693.2
307.92 K, 101320 kPa	1724.3
308.14 K, 100 kPa	1330.6
312.91 K, 15200 kPa	1392.8
312.91 K, 30390 kPa	1460.8
312.91 K, 45590 kPa	1522.2
312.91 K, 60790 kPa	1578.9
312.91 K, 75990 kPa	1632
312.91 K, 91180 kPa	1681.1
312.91 K, 101320 kPa	1712.3
313.11 K, 100 kPa	1313.8
318.29 K, 100 kPa	1296.3
318.38 K, 45590 kPa	1507.3
318.38 K, 60790 kPa	1564.6
318.38 K, 75990 kPa	1618.3
318.38 K, 91180 kPa	1667.8
318.38 K, 101320 kPa	1699.1
318.39 K, 15200 kPa	1375.9
318.39 K, 30390 kPa	1444.8
318.39 K, 45590 kPa	1507.3
318.39 K, 91180 kPa	1667.8

Conditions	mass density [kg/m3]
293.15 K	827.66
298.15 K	824.239
303.16 K	820.8
308.15 K	817.345
313.15 K	813.868
318.15 K	810.376

CCCCCCCCO [octan-1-ol]
Conditions	speed of sound [m/s]
292.77 K, 15230 kPa	1440.3
292.77 K, 30430 kPa	1505.2
292.77 K, 76010 kPa	1670.1
292.78 K, 60800 kPa	1619.3
292.79 K, 91200 kPa	1717.8
292.83 K, 45610 kPa	1564.1
292.83 K, 96120 kPa	1733
292.92 K, 100 kPa	1365.2
298.07 K, 76040 kPa	1656.5
298.07 K, 91190 kPa	1703.9
298.07 K, 97840 kPa	1724.3
298.09 K, 45610 kPa	1548.8
298.09 K, 60840 kPa	1604.6
298.13 K, 30410 kPa	1488.8
298.19 K, 15200 kPa	1422.6
298.2 K, 100 kPa	1347.1
303.15 K, 76000 kPa	1642.8
303.16 K, 91200 kPa	1691.2
303.18 K, 100 kPa	1330.2
303.2 K, 101340 kPa	1722.3
303.26 K, 60820 kPa	1590.2
303.27 K, 15200 kPa	1406.2
303.27 K, 45600 kPa	1533.9
303.28 K, 30410 kPa	1473.3
308.12 K, 91200 kPa	1679.2
308.12 K, 101320 kPa	1710.3
308.16 K, 100 kPa	1313.3
308.16 K, 91210 kPa	1679.1
308.17 K, 30400 kPa	1458.8
308.17 K, 76020 kPa	1630
308.18 K, 45600 kPa	1520.3
308.18 K, 60790 kPa	1576.8
308.19 K, 15210 kPa	1390.7
313.15 K, 100 kPa	1296.5
313.22 K, 91200 kPa	1666.8
313.22 K, 101340 kPa	1697.8
313.23 K, 76000 kPa	1616.6
313.26 K, 15200 kPa	1375.1
313.26 K, 30390 kPa	1443.9
313.26 K, 45590 kPa	1506.1
313.28 K, 60790 kPa	1563.5
318.33 K, 100 kPa	1279.2
318.82 K, 45600 kPa	1491
318.82 K, 60790 kPa	1549.2
318.82 K, 75990 kPa	1603.4
318.82 K, 101330 kPa	1684.9
318.83 K, 15200 kPa	1357.8
318.83 K, 91180 kPa	1653.7
318.84 K, 30390 kPa	1427.8

Conditions	mass density [kg/m3]
293.15 K	825.048
298.15 K	821.636
303.15 K	818.173
308.15 K	814.675
313.15 K	811.171
318.15 K	807.654
